These results are taken from PMC6109769, “Calmodulin Enhances Cryptochrome Binding to INAD in Drosophila Photoreceptors” (Frontiers in Molecular Neuroscience, 2018).

One assay has as its system CaM-dCRY complex. The format is binding, Xenopus laevis. The conditions noted are these: ITC, 5 mM CaCl2; INAD peptide 800 μM over CaM 40 μM + dCRY peptide 40 μM (1:1). How it is done:
Peptide titrations were performed at 25°C using a high-sensitivity VP-isothermal titration calorimetry (ITC) microcalorimeter (MicroCal LLC, Northampton, MA, USA). The reference cell was filled with deionized water. Protein and peptide solutions were prepared by diluting concentrated stock solutions in the reaction buffer (50 mM TrisHCl, pH 7.5, 150 mM NaCl, in the absence or in the presence of 5 mM CaCl2). Apo-protein and peptide solutions were devoid of Ca^2+ ions, as determined by inductively coupled plasma emission spectroscopy, as previously described (Merloni et al., [2014]). Each experiment started with a small injection of 1–2 μL, which was discarded from the analysis of the integrated data, in order to avoid artifacts due to the diffusion through the injection port occurring during the long equilibration period, locally affecting the protein concentration near the syringe needle tip. Care was taken to start the first addition after baseline stability had been achieved. […] To allow the system to reach equilibrium, a spacing of 300 s was applied between each ligand injection.
The reaction was monitored using ITC. […] A fit of the integrated heat data, however, is quite complex, as the binding curve represents the sum of the contributions of the multiple binding isotherms deriving from the different equilibria involved. […]

Assay [1] deals with T1, CaM (Xenopus laevis, UniProt P0DP33).
T1 construct: (His)6 (N); made in house; host or cells: Escherichia coli BL21
Nature of the assay: ITC titration of peptide into Ca2+-loaded CaM (5 mM CaCl2), single-curve fits. The conditions noted are these: calculated, T = 298 K. The format is binding. On the procedure: (§1) Peptide titrations were performed at 25°C using a high-sensitivity VP-isothermal titration calorimetry (ITC) microcalorimeter (MicroCal LLC, Northampton, MA, USA). The reference cell was filled with deionized water. Protein and peptide solutions were prepared by diluting concentrated stock solutions in the reaction buffer (50 mM TrisHCl, pH 7.5, 150 mM NaCl, in the absence or in the presence of 5 mM CaCl2). Apo-protein and peptide solutions were devoid of Ca^2+ ions, as determined by inductively coupled plasma emission spectroscopy, as previously described (Merloni et al., [2014]). […]
(§2) Integrated heat data obtained for each titration were fitted using a nonlinear least-squares minimization algorithm to a theoretical titration curve, using AFFINImeter^2, using both the independent sites and the stoichiometric equilibria approach. ΔH (reaction enthalpy change, cal mol^−1) and Ka (binding constant, M^−1) were the thermodynamic fitting parameters. […] The reaction entropy was calculated using the relationships ΔG = −RTlnKa (R = 1.9872 cal mol^−1 K^−1, T = 298 K) and ΔG = ΔH − TΔS. […] The reliability of the obtained fits was evaluated using the Goodness of Fit (GoF) parameter.

The target of assay [2] is T1, CaM. Nature of the assay: ITC global fit of single titrations and competition experiment (Scheme 5), 5 mM CaCl2. It is filed as binding. The following applies: calculated from global fit Scheme 5. On the procedure:
as §1, §2
The reaction was monitored using ITC. […]

Each structure is given as a SMILES string.

As for `CC[C@H](C)[C@H](NC(=O)[C@H](CCCCN)NC(=O)[C@H](C)NC(=O)[C@H](CCSC)NC(=O)[C@@H](NC(=O)[C@H](Cc1ccc(O)cc1)NC(=O)CNC(=O)[C@H](Cc1ccccc1)NC(C)=O)[C@@H](C)O)C(=O)N[C@@H](CC(N)=O)C(=O)N[C@@H](CCCCN)C(=O)N[C@@H](CCCNC(=N)N)C(=O)N[C@@H](Cc1ccc(O)cc1)C(=O)N[C@@H](CC(N)=O)C(=O)N[C@@H](CCSC)C(N)=O` [INAD230–243], in the assay with CaM-dCRY complex, the “heat of reaction on titration of INAD over CaM preincubated with dCRY” value is on record as “absence of significant heat of reaction”. Besides, the “ΔS (INAD)” value at CaM [1] is recorded as −11.3 cal mol^−1 K^−1. Moreover, the “ΔSINAD, global fit” value at CaM [2] was “+4.42 cal mol^−1 K^−1”.
